The values below come from patent US10189816B2, “Substituted pyridines as inhibitors of human immunodeficiency virus replication” (priority 2015, dated 2019).

The experiment concerns NL-RLuc virus. Kind of experiment: Inhibition of HIV replication (NL-RLuc reporter virus in MT-2 cells, luciferase readout). Type of experiment: cell-based. The note with it: Human immunodeficiency virus 1, MT2, 120 h. The procedure, abridged:
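MT-2 cells infected with NL4-3-derived NL-RLuc reporter virus (Renilla luciferase replacing part of nef) with serial compound dilutions, RPMI 1640 + 10% FBS; 5 days. Growth by luciferase; EC50 from median effect equation, ≥2 experiments.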

SMILES strings stand for the structures. Like-named read-outs stand apart in the source and are kept apart here. Bounds are passed on as bounds.

Consider `Cc1nc(C)c([C@H](OC(C)(C)C)C(=O)O)c(N2CCC(C)(C)CC2)c1-c1ccc2c(c1)CCN(Cc1ccc(C(C)C)cc1)C2` [Compound 59, (S)-2-(tert-butoxy)-2-(4-(4,4-dimethylpiperidin-1-yl)-5-(2-(4-isopropylbenzyl)-1,2,3,4-tetrahydroisoquinolin-6-yl)-2,6-dimethylpyridin-3-yl)acetic acid], for which the EC50 reads like this: (read-out: Activity) under 0.1 µM; (read-out: EC50 μM) 0.058 µM.
For `CCc1ccc(CN2CCc3cc(-c4c(C)nc(C)c([C@H](OC(C)(C)C)C(=O)O)c4N4CCC(C)(C)CC4)ccc3C2)cc1` [Compound 60, (S)-2-(tert-butoxy)-2-(4-(4,4-dimethylpiperidin-1-yl)-5-(2-(4-ethylbenzyl)-1,2,3,4-tetrahydroisoquinolin-6-yl)-2,6-dimethylpyridin-3-yl)acetic acid], the EC50 (read-out: Activity) is under 0.1 µM.
As for `Cc1nc(C)c([C@H](OC(C)(C)C)C(=O)O)c(N2CCC(C)(C)CC2)c1-c1ccc2c(c1)CCN(Cc1cccc(C#N)c1)C2` [Compound 61, (S)-2-(tert-butoxy)-2-(5-(2-(3-cyanobenzyl)-1,2,3,4-tetrahydroisoquinolin-6-yl)-4-(4,4-dimethylpiperidin-1-yl)-2,6-dimethylpyridin-3-yl)acetic acid], the EC50 (read-out: Activity) is under 0.1 µM.
Consider `Cc1nc(C)c([C@H](OC(C)(C)C)C(=O)O)c(N2CCC(C)(C)CC2)c1-c1ccc2c(c1)CCN(Cc1ccccc1C#N)C2` [Compound 62, (S)-2-(tert-butoxy)-2-(5-(2-(2-cyanobenzyl)-1,2,3,4-tetrahydroisoquinolin-6-yl)-4-(4,4-dimethylpiperidin-1-yl)-2,6-dimethylpyridin-3-yl)acetic acid], for which the EC50 (read-out: Activity) is under 0.1 µM.
Consider `Cc1nc(C)c([C@H](OC(C)(C)C)C(=O)O)c(N2CCC(C)(C)CC2)c1-c1ccc2c(c1)CCN(Cc1cc(C#N)ccc1F)C2` [Compound 63, (S)-2-(tert-butoxy)-2-(5-(2-(5-cyano-2-fluorobenzyl)-1,2,3,4-tetrahydroisoquinolin-6-yl)-4-(4,4-dimethylpiperidin-1-yl)-2,6-dimethylpyridin-3-yl)acetic acid], for which the EC50 (read-out: Activity) is under 0.1 µM.
In the case of `Cc1nc(C)c([C@H](OC(C)(C)C)C(=O)O)c(N2CCC(C)(C)CC2)c1-c1ccc2c(c1)CCN(Cc1ccc(C#N)cc1)C2` [Compound 64, (S)-2-(tert-butoxy)-2-(5-(2-(4-cyanobenzyl)-1,2,3,4-tetrahydroisoquinolin-6-yl)-4-(4,4-dimethylpiperidin-1-yl)-2,6-dimethylpyridin-3-yl)acetic acid], under “read-out: Activity”, the EC50 was under 0.1 µM.
Take `Cc1cc(C#N)ccc1CN1CCc2cc(-c3c(C)nc(C)c([C@H](OC(C)(C)C)C(=O)O)c3N3CCC(C)(C)CC3)ccc2C1` [Compound 65, (S)-2-(tert-butoxy)-2-(5-(2-(4-cyano-2-methylbenzyl)-1,2,3,4-tetrahydroisoquinolin-6-yl)-4-(4,4-dimethylpiperidin-1-yl)-2,6-dimethylpyridin-3-yl)acetic acid]: the EC50 (read-out: Activity) was under 0.1 µM.
On to `Cc1nc(C)c([C@H](OC(C)(C)C)C(=O)O)c(N2CCC(C)(C)CC2)c1-c1ccc2c(c1)CCN(Cc1cc(F)ccc1C(F)(F)F)C2` [Compound 66, (S)-2-(tert-butoxy)-2-(4-(4,4-dimethylpiperidin-1-yl)-5-(2-(5-fluoro-2-(trifluoromethyl)benzyl)-1,2,3,4-tetrahydroisoquinolin-6-yl)-2,6-dimethylpyridin-3-yl)acetic acid], for which the EC50 (read-out: Activity) was under 0.1 µM and the EC50 (read-out: EC50 μM) is 0.013 µM.
For `Cc1nc(C)c([C@H](OC(C)(C)C)C(=O)O)c(N2CCC(C)(C)CC2)c1-c1ccc2c(c1)CCN(Cc1ccc(F)c(C(F)(F)F)c1)C2` [Compound 67, (S)-2-(tert-butoxy)-2-(4-(4,4-dimethylpiperidin-1-yl)-5-(2-(4-fluoro-3-(trifluoromethyl)benzyl)-1,2,3,4-tetrahydroisoquinolin-6-yl)-2,6-dimethylpyridin-3-yl)acetic acid], the EC50 (read-out: Activity) was under 0.1 µM.
With `Cc1nc(C)c([C@H](OC(C)(C)C)C(=O)O)c(N2CCC(C)(C)CC2)c1-c1ccc2c(c1)CCN(Cc1cc(F)cc(C(F)(F)F)c1)C2` [Compound 68, (S)-2-(tert-butoxy)-2-(4-(4,4-dimethylpiperidin-1-yl)-5-(2-(3-fluoro-5-(trifluoromethyl)benzyl)-1,2,3,4-tetrahydroisoquinolin-6-yl)-2,6-dimethylpyridin-3-yl)acetic acid], the EC50 (read-out: Activity) was under 0.1 µM.
The same measure, in the same setting: the same measure for `Cc1nc(C)c([C@H](OC(C)(C)C)C(=O)O)c(N2CCC(C)(C)CC2)c1-c1ccc2c(c1)CCN(Cc1ccc(F)cc1C(F)(F)F)C2` [Compound 69, (S)-2-(tert-butoxy)-2-(4-(4,4-dimethylpiperidin-1-yl)-5-(2-(4-fluoro-2-(trifluoromethyl)benzyl)-1,2,3,4-tetrahydroisoquinolin-6-yl)-2,6-dimethylpyridin-3-yl)acetic acid]: under 0.1 µM; for `Cc1nc(C)c([C@H](OC(C)(C)C)C(=O)O)c(N2CCC(C)(C)CC2)c1-c1ccc2c(c1)CCN(Cc1cc(C(F)(F)F)ccc1F)C2` [Compound 70, (S)-2-(tert-butoxy)-2-(4-(4,4-dimethylpiperidin-1-yl)-5-(2-(2-fluoro-5-(trifluoromethyl)benzyl)-1,2,3,4-tetrahydroisoquinolin-6-yl)-2,6-dimethylpyridin-3-yl)acetic acid]: under 0.1 µM.
For `Cc1cc(CN2CCc3cc(-c4c(C)nc(C)c([C@H](OC(C)(C)C)C(=O)O)c4N4CCC(C)(C)CC4)ccc3C2)ccc1F` [Compound 71, (S)-2-(tert-butoxy)-2-(4-(4,4-dimethylpiperidin-1-yl)-5-(2-(4-fluoro-3-methylbenzyl)-1,2,3,4-tetrahydroisoquinolin-6-yl)-2,6-dimethylpyridin-3-yl)acetic acid], the EC50 (read-out: Activity) is under 0.1 µM.
Regarding `Cc1nc(C)c([C@H](OC(C)(C)C)C(=O)O)c(N2CCC(C)(C)CC2)c1-c1ccc2c(c1)CCN(Cc1ccc(F)c(C)c1C)C2` [Compound 72, (S)-2-(tert-butoxy)-2-(4-(4,4-dimethylpiperidin-1-yl)-5-(2-(4-fluoro-2,3-dimethylbenzyl)-1,2,3,4-tetrahydroisoquinolin-6-yl)-2,6-dimethylpyridin-3-yl)acetic acid], the EC50 (read-out: Activity) is under 0.1 µM.
For `Cc1ccc(CN2CCc3cc(-c4c(C)nc(C)c([C@H](OC(C)(C)C)C(=O)O)c4N4CCC(C)(C)CC4)ccc3C2)c(F)c1F` [Compound 73, (S)-2-(tert-butoxy)-2-(5-(2-(2,3-difluoro-4-methylbenzyl)-1,2,3,4-tetrahydroisoquinolin-6-yl)-4-(4,4-dimethylpiperidin-1-yl)-2,6-dimethylpyridin-3-yl)acetic acid], the EC50 is under 0.1 µM (read-out: Activity) and 0.007 µM (read-out: EC50 μM).
With `Cc1ccc(F)c(CN2CCc3cc(-c4c(C)nc(C)c([C@H](OC(C)(C)C)C(=O)O)c4N4CCC(C)(C)CC4)ccc3C2)c1` [Compound 74, (S)-2-(tert-butoxy)-2-(4-(4,4-dimethylpiperidin-1-yl)-5-(2-(2-fluoro-5-methylbenzyl)-1,2,3,4-tetrahydroisoquinolin-6-yl)-2,6-dimethylpyridin-3-yl)acetic acid], for the setting “read-out: Activity”, the EC50 was under 0.1 µM.
Turning to `Cc1cc(CN2CCc3cc(-c4c(C)nc(C)c([C@H](OC(C)(C)C)C(=O)O)c4N4CCC(C)(C)CC4)ccc3C2)cc(C)c1F` [Compound 75, (S)-2-(tert-butoxy)-2-(4-(4,4-dimethylpiperidin-1-yl)-5-(2-(4-fluoro-3,5-dimethylbenzyl)-1,2,3,4-tetrahydroisoquinolin-6-yl)-2,6-dimethylpyridin-3-yl)acetic acid], the EC50 (read-out: Activity) was under 0.1 µM.
On to `Cc1cc(CN2CCc3cc(-c4c(C)nc(C)c([C@H](OC(C)(C)C)C(=O)O)c4N4CCC(C)(C)CC4)ccc3C2)cc(F)c1F` [Compound 76, (S)-2-(tert-butoxy)-2-(5-(2-(3,4-difluoro-5-methylbenzyl)-1,2,3,4-tetrahydroisoquinolin-6-yl)-4-(4,4-dimethylpiperidin-1-yl)-2,6-dimethylpyridin-3-yl)acetic acid], for which the EC50 (read-out: Activity) is under 0.1 µM.
`Cc1nc(C)c([C@H](OC(C)(C)C)C(=O)O)c(N2CCC(C)(C)CC2)c1-c1ccc2c(c1)CCN(Cc1ccccc1C(C)C)C2` [Compound 77, (S)-2-(tert-butoxy)-2-(4-(4,4-dimethylpiperidin-1-yl)-5-(2-(2-isopropylbenzyl)-1,2,3,4-tetrahydroisoquinolin-6-yl)-2,6-dimethylpyridin-3-yl)acetic acid]: the EC50 (read-out: Activity) is under 0.1 µM.
Turning to `Cc1cc(C)c(CN2CCc3cc(-c4c(C)nc(C)c([C@H](OC(C)(C)C)C(=O)O)c4N4CCC(C)(C)CC4)ccc3C2)cc1C` [Compound 78, (S)-2-(tert-butoxy)-2-(4-(4,4-dimethylpiperidin-1-yl)-2,6-dimethyl-5-(2-(2,4,5-trimethylbenzyl)-1,2,3,4-tetrahydroisoquinolin-6-yl)pyridin-3-yl)acetic acid], the EC50 (read-out: Activity) is under 0.1 µM.
With `Cc1cc(C)cc(CN2CCc3cc(-c4c(C)nc(C)c([C@H](OC(C)(C)C)C(=O)O)c4N4CCC(C)(C)CC4)ccc3C2)c1` [Compound 79, (S)-2-(tert-butoxy)-2-(5-(2-(3,5-dimethylbenzyl)-1,2,3,4-tetrahydroisoquinolin-6-yl)-4-(4,4-dimethylpiperidin-1-yl)-2,6-dimethylpyridin-3-yl)acetic acid], the EC50 (read-out: Activity) was under 0.1 µM.
Turning to `Cc1cccc(CN2CCc3cc(-c4c(C)nc(C)c([C@H](OC(C)(C)C)C(=O)O)c4N4CCC(C)(C)CC4)ccc3C2)c1C` [Compound 80, (S)-2-(tert-butoxy)-2-(5-(2-(2,3-dimethylbenzyl)-1,2,3,4-tetrahydroisoquinolin-6-yl)-4-(4,4-dimethylpiperidin-1-yl)-2,6-dimethylpyridin-3-yl)acetic acid], the EC50 is, setting by setting: (read-out: Activity) under 0.1 µM; (read-out: EC50 μM) 0.003 µM.
`Cc1nc(C)c([C@H](OC(C)(C)C)C(=O)O)c(N2CCC(C)(C)CC2)c1-c1ccc2c(c1)CCN(Cc1cccc(C(C)(C)C)c1)C2` [Compound 81, (S)-2-(tert-butoxy)-2-(5-(2-(3-(tert-butyl)benzyl)-1,2,3,4-tetrahydroisoquinolin-6-yl)-4-(4,4-dimethylpiperidin-1-yl)-2,6-dimethylpyridin-3-yl)acetic acid]: the EC50 (read-out: Activity) was under 0.1 µM.
